# According to article PMC12396409, “Screening and hit evaluation of a microbial metabolite library against the pathogenic Plasmodium falciparum and Toxoplasma gondii parasites” (International Journal for Parasitology: Drugs and Drug …, 2025):
# Where two headings read alike, the source gives them in different places.
# Assays:
# [1] = system: P. falciparum 3D7 parasites; test: P. falciparum growth inhibition assay, 1-cycle (72 h treatment), SYBR DNA staining (library screen at 2 μg/mL and dose-response); format: cell-based, Plasmodium falciparum
# [2] = system: P. falciparum 3D7 parasites; test: P. falciparum growth inhibition assay, 2-cycle (120 h treatment), delayed-death screen and dose-response; format: cell-based, Plasmodium falciparum
# [3] = system: T. gondii RH strain (RH-Tub-eYFP) tachyzoites; test: microbe, parasite or virus in culture; format: cell-based, Toxoplasma gondii; conditions: 72 h, 72 h; for percent parasite growth at 2 µg/mL: Toxoplasma gondii
# [4] = Plasmodium falciparum, 3D7, 72 h, P. falciparum, 72 h, screen at 2 μg/mL, replicate 1, read-out: Pf_72h_%Growth_Rep1
# [5] = Plasmodium falciparum, 3D7, 72 h, P. falciparum, 72 h, screen at 2 μg/mL, replicate 2, read-out: Pf_72h_%Growth_Rep2
# [6] = Plasmodium falciparum, 3D7, 120 h, P. falciparum, 120 h, screen at 2 μg/mL, replicate 1, read-out: Pf_120h_%Growth_Rep1
# [7] = Plasmodium falciparum, 3D7, 120 h, P. falciparum, 120 h, screen at 2 μg/mL, replicate 2, read-out: Pf_120h_%Growth_Rep2
# [8] = T. gondii, screen at 2 μg/mL, replicate 1, read-out: Tg_72h_%Growth_Rep1
# [9] = T. gondii, screen at 2 μg/mL, replicate 2, read-out: Tg_72h_%Growth_Rep2
# [10] = library screen at 2 μg/mL, 72 h, % growth, replicate 1
# [11] = library screen at 2 μg/mL, 72 h, % growth, replicate 2
# [12] = library screen at 2 μg/mL, 120 h, % growth, replicate 1
# [13] = library screen at 2 μg/mL, 120 h, % growth, replicate 2
# [14] = library screen at 2 μg/mL, % growth, replicate 1
# [15] = library screen at 2 μg/mL, % growth, replicate 2
# [16] = P. falciparum, 72 h, screen at 2 μg/mL, replicate 1
# [17] = P. falciparum, 72 h, screen at 2 μg/mL, replicate 2
# [18] = P. falciparum, 120 h, screen at 2 μg/mL, replicate 1
# [19] = P. falciparum, 120 h, screen at 2 μg/mL, replicate 2
# [20] = T. gondii, screen at 2 μg/mL, replicate 1
# [21] = T. gondii, screen at 2 μg/mL, replicate 2
# [22] = P. falciparum, 72 h, parasite screen 2 μg/mL, % growth, replicate 1
# [23] = P. falciparum, 72 h, parasite screen 2 μg/mL, % growth, replicate 2
# [24] = P. falciparum, 120 h, parasite screen 2 μg/mL, % growth, replicate 1
# [25] = P. falciparum, 120 h, parasite screen 2 μg/mL, % growth, replicate 2
# [26] = T. gondii, parasite screen 2 μg/mL, % growth, replicate 1
# [27] = T. gondii, parasite screen 2 μg/mL, % growth, replicate 2
smiles,measurement,setting,value
"CS(=O)(=O)c1ccc([C@@H](O)[C@@H](CF)NC(=O)C(Cl)Cl)cc1 [Florfenicol, reference compound]",activity at 2 µg/mL,"[1]; Plasmodium falciparum, 3D7, 72 h, P. falciparum, 2 μg/mL, 72 h; read-out: 1) Growth (%) at 72 h",62.4%
same,activity at 2 µg/mL,"[1]; Plasmodium falciparum, 3D7, 72 h, library screen at 2 μg/mL, 72 h, % growth, replicate 1, read-out: Pf_72h_%Growth_Rep1",69.7%
same,activity at 2 µg/mL,"[1]; Plasmodium falciparum, 3D7, 72 h, library screen at 2 μg/mL, 72 h, % growth, replicate 2, read-out: Pf_72h_%Growth_Rep2",55.2%
same,3) Fold change (72 h/120 h),[2],5.8
same,activity at 2 µg/mL,"[2]; Plasmodium falciparum, 3D7, 120 h, P. falciparum, 2 μg/mL, 120 h; read-out: 2) Growth (%) at 120 h",10.8%
same,activity at 2 µg/mL,"[2]; Plasmodium falciparum, 3D7, 120 h, library screen at 2 μg/mL, 120 h, % growth, replicate 1, read-out: Pf_120h_%Growth_Rep1",12.9%
same,activity at 2 µg/mL,"[2]; Plasmodium falciparum, 3D7, 120 h, library screen at 2 μg/mL, 120 h, % growth, replicate 2, read-out: Pf_120h_%Growth_Rep2",8.65%
same,percent parasite growth at 2 µg/mL,"[3]; library screen at 2 μg/mL, % growth, replicate 1, read-out: Tg_72h_%Growth_Rep1",47.1%
same,percent parasite growth at 2 µg/mL,"[3]; library screen at 2 μg/mL, % growth, replicate 2, read-out: Tg_72h_%Growth_Rep2",48.9%
O=C(O)/C=C/c1c[nH]cn1 [Urocanic acid],activity at 2 µg/mL,[1]; [4],79.2%
same,activity at 2 µg/mL,[1]; [5],89.3%
same,activity at 2 µg/mL,[2]; [6],81.3%
same,activity at 2 µg/mL,[2]; [7],51.9%
same,percent parasite growth at 2 µg/mL,[3]; [8],81%
same,percent parasite growth at 2 µg/mL,[3]; [9],70.9%
COc1oc([C@H]2C/C(=C/C(C)=C/c3ccc([N+](=O)[O-])cc3)CO2)c(C)c(=O)c1C [Aureothin],Pf_72h_%Growth_Rep1,[1]; [10],103.52%
same,Pf_72h_%Growth_Rep2,[1]; [11],87.70%
same,Pf_120h_%Growth_Rep1,[2]; [12],128.40%
same,Pf_120h_%Growth_Rep2,[2]; [13],61.20%
same,Tg_72h_%Growth_Rep1,[3]; [14],66.52%
same,Tg_72h_%Growth_Rep2,[3]; [15],65.05%
CC[C@H]1C[C@@H]2CC[C@@H](O2)[C@@H](C)C(=O)O[C@H](CC)C[C@H]2CC[C@H](O2)[C@H](C)C(=O)O[C@@H](C)C[C@@H]2CC[C@@H](O2)[C@@H](C)C(=O)O[C@H](CC)C[C@H]2CC[C@H](O2)[C@H](C)C(=O)O1 [Trinactin],Pf_72h_%Growth_Rep1,[1]; [16],3.59%
same,Pf_72h_%Growth_Rep2,[1]; [17],-0.10%
same,Pf_120h_%Growth_Rep1,[2]; [18],16.44%
same,Pf_120h_%Growth_Rep2,[2]; [19],5.60%
same,Tg_72h_%Growth_Rep1,[3]; [20],2.98%
same,Tg_72h_%Growth_Rep2,[3]; [21],5.01%
CC(=O)N[C@H](CO)[C@H](O)c1ccc([N+](=O)[O-])cc1 [Corynecin I],Pf_72h_%Growth_Rep1,[1]; [16],83.09%
same,Pf_72h_%Growth_Rep2,[1]; [17],83.78%
same,Pf_120h_%Growth_Rep1,[2]; [18],83.28%
same,Pf_120h_%Growth_Rep2,[2]; [19],82.34%
same,Tg_72h_%Growth_Rep1,[3]; [20],123.69%
same,Tg_72h_%Growth_Rep2,[3]; [21],87.57%
C/C=C/[C@@H]1C=C[C@@H]2C[C@H](C)CC[C@H]2[C@]1(C)/C(O)=C1/C(=O)[C@H](CO)N(C)C1=O [Equisetin],Pf_72h_%Growth_Rep1,[1]; [10],83.58%
same,Pf_72h_%Growth_Rep2,[1]; [11],91.13%
same,Pf_120h_%Growth_Rep1,[2]; [12],83.53%
same,Pf_120h_%Growth_Rep2,[2]; [13],117.48%
same,Tg_72h_%Growth_Rep1,[3]; [14],89.36%
same,Tg_72h_%Growth_Rep2,[3]; [15],86.41%
CC1(C)C=Cc2c(ccc3ccc(=O)oc23)O1 [Seselin],Pf_72h_%Growth_Rep1,[1]; [22],72.86%
same,Pf_72h_%Growth_Rep2,[1]; [23],126.42%
same,Pf_120h_%Growth_Rep1,[2]; [24],59.04%
same,Pf_120h_%Growth_Rep2,[2]; [25],133.69%
same,Tg_72h_%Growth_Rep1,[3]; [26],115.94%
same,Tg_72h_%Growth_Rep2,[3]; [27],77.58%
COc1ccc2c(c1OC)C[N+]1(C)CCc3cc4c(cc3C1C2)OCO4.[I-] (stereo not drawn) [BIA-M1962],Pf_72h_%Growth_Rep1,"[1]; P. falciparum 3D7, 72 h, parasite screen at 2 μg/mL, % growth, replicate 1",14.79%
same,Pf_72h_%Growth_Rep2,"[1]; P. falciparum 3D7, 72 h, parasite screen at 2 μg/mL, % growth, replicate 2",27.45%
same,Pf_120h_%Growth_Rep1,"[2]; P. falciparum 3D7, 120 h, parasite screen at 2 μg/mL, % growth, replicate 1",5.27%
same,Pf_120h_%Growth_Rep2,"[2]; P. falciparum 3D7, 120 h, parasite screen at 2 μg/mL, % growth, replicate 2",17.95%
same,Tg_72h_%Growth_Rep1,"[3]; T. gondii, parasite screen at 2 μg/mL, % growth, replicate 1",93.48%
same,Tg_72h_%Growth_Rep2,"[3]; T. gondii, parasite screen at 2 μg/mL, % growth, replicate 2",106.99%
Nc1ncnc2c1ccn2[C@@H]1O[C@H](CO)[C@@H](O)[C@H]1O [Tubercidin],activity at 2 µg/mL,[1]; [4],7.17%
same,activity at 2 µg/mL,[1]; [5],7.42%
same,activity at 2 µg/mL,[2]; [6],40.9%
same,activity at 2 µg/mL,[2]; [7],12.8%
same,percent parasite growth at 2 µg/mL,[3]; [8],3.92%
same,percent parasite growth at 2 µg/mL,[3]; [9],3.05%
C[C@@H]1CC[C@H](O)/C=C/C(=O)O[C@H](C)CC[C@H](O)/C=C/C(=O)O1 [Pyrenophorol],Pf_72h_%Growth_Rep1,[1]; [22],90.24%
same,Pf_72h_%Growth_Rep2,[1]; [23],103.36%
same,Pf_120h_%Growth_Rep1,[2]; [24],102.30%
same,Pf_120h_%Growth_Rep2,[2]; [25],75.99%
same,Tg_72h_%Growth_Rep1,[3]; [26],105.85%
same,Tg_72h_%Growth_Rep2,[3]; [27],74.43%
